Test results from US7531507B2, “Acylated nonadepsipeptides containing pyridyl alanine residues” (AiCuris GmbH & Co. KG, priority 2004, dated 2009).
≈ marks a conversion by molar mass, not a printed value. Where a name gives a salt, the structure may show the parent alone. Read-outs that look alike come from different tables or passages of the source. Values belong to the molecule of their own block, whether it stands above or below them. Starred links: 1 amine or outer side, 2 acyl side, 3 side chain; linkers in the order of their positions; H or OH if unused. Positions of bridges follow the written chain, without caps; N, C: chain ends. Non-standard residues stand in square brackets, D forms with d. Residues, ends and D or L forms follow the SMILES beside them. *: point of attachment. X3 = CCC(C)(C)C[C@@H](N)C(=O)N[C@@H](Cc1cccnc1)C(=O)N[C@H](C(N)=O)[C@H](O*)c1ccccc1; Phe(3R-OH) = O=C([C@@H](N[*:1])[C@H](O[*:3])c1ccccc1)[*:2]; Asn(3S-OH) = NC(=O)[C@@H](O)[C@H](N)C(=O)O; Leu(3R-OH) = CC(C)[C@@H](O)[C@H](N)C(=O)O; dAla(TMS) = C[Si](C)(C)C[C@@H](N)C(=O)O; X1 = CC(C)[C@@H](O)[C@H](C)C(=O)*; 3Pal = N[C@@H](Cc1cccnc1)C(=O)O; aThr = C[C@H](O)[C@H](N)C(=O)O

What was measured:
[1] = test system: Staphylococcus aureus 133; format: cell-based
Procedure: (§1) Determination of the Minimum Inhibitory Concentration (MIC):
(§2) The MIC is determined in the liquid dilution test in accordance with the NCCLS guidelines. Overnight cultures of Staphylococcus aureus 133, Enterococcus faecalis 27159, E. faecium 4147 and Streptococcus pneumoniae G9a are incubated with the described test substances in a 1:2 dilution series. The MIC determination is carried out with a cell count of 10^5 microbes per ml in Isosensitest medium (Difco, Irvine/USA), with the exception of S. pneumoniae which is tested in BHI broth (Difco, Irvine/USA) with 10% bovine serum with a cell count of 10^6 microbes per ml. The cultures are incubated at 37° C. for 18-24 hours, S. pneumoniae in the presence of 10% CO2.
(§3) The MIC is defined as the lowest concentration of each substance at which visible bacterial growth no longer occurs. The MIC values are reported in μg/ml.

[2] = test system: Streptococcus pneumoniae G9a; format: cell-based
Procedure: as §1, §2, §3

[3] = Determination of the free fraction (fu) in plasma via Transil or ultrafiltration; format: in vitro ADME, rat
Procedure: Principle of the Determination of the Free Fraction via Transil:
The method described herein for determining the free fraction (fu) of a test substance is divided into 2 parts:
a) Determination of the Transil®/buffer partitioning ratio (MAbuffer) by incubating the test substance in a Transil® buffer (pH 7.4) dispersion and subsequently determining the concentration in the dispersion and in the buffer supernatant.
b) Determination of the Transil®/plasma partitioning ratio (MAplasma) by incubating the test substance in a Transil® plasma dispersion and subsequently determining the concentration in the dispersion and in the plasma.
The quotient of the two partitioning ratios gives fu.
Where substances are highly protein-bound, the plasma is usually diluted with isotonic phosphate buffer (pH 7.4) and then suspended with Transil®. Determination of fu′ (free fraction in diluted plasma) in this diluted protein solution takes place in analogy to the determination of fu. The free fraction in undiluted plasma is calculated from fu′ and the dilution factor.
Concerning this method, compare also: Schuhmacher, Joachim; Kohlsdorfer, Christian; Buehner, Klaus; Brandenburger, Tim; Kruk, Renate, “High-throughput determination of the free fraction of drugs strongly bound to plasma proteins.” Journal of Pharmaceutical Sciences 2004, 93, 816-830.
Determination of the Membrane Affinity of a Test Substance After Partitioning Between Transil® and Buffer (MAbuffer):
All incubations are carried out in suitable glass vessels, e.g. glass vials, ground-joint test tubes. The total volume is usually 0.5-5 ml, and the Transil® volume is 10-100 μl. If the membrane affinities are expected to be high, the Transil® dispersion can be diluted up to 20 times with phosphate buffer of pH 7.4, e.g. Dulbecco's PBS. Phosphate buffer of pH 7.4 is introduced into the incubation vessels, and the Transil® is pipetted in after thorough mixing. The test substance is pipetted in at a concentration of, for example, 200 ng/ml, n=6. The proportion of organic solvents should be ≦2%. The mixtures are incubated at room temperature i.e. on a mini-shaker at an angle of about 45°, at about 400 rpm for 30 min. The 100% value is determined by taking at least one aliquot of, for example, 100 μl, and the remaining mixture is centrifuged at about 1800 g for about 10 min. […]
The plasma of the species to be investigated is filtered through a semipermeable membrane. The concentration of substance in the filtrate is measured, and the free fraction fU is calculated therefrom. […] The concentration of substance in the ultrafiltrate (Cu, unbound substance concentration) and in the plasma before centrifugation (C; total substance concentration) is measured. The free fraction is calculated by the formula fu (%)=Cu/C*100.

E. faecium L4001 = format: cell-based, Enterococcus faecium; details: Isosensitest medium, 10^5 microbes per ml, 37° C., 18-24 hours
E. faecalis ICB 27159 = format: cell-based, Enterococcus faecalis
Procedure: as §1, §2, §3

[4] = Isosensitest medium, 10^5 microbes per ml, 37° C., 18-24 hours
[5] = BHI broth with 10% bovine serum, 10^6 microbes per ml, 37° C., 18-24 hours, 10% CO2
[6] = free fraction in rat plasma, read-out: fu (rat)
[7] = Isosensitest medium, 10^5 microbes per ml, 37° C., 18-24 hours, trishydrochloride

SMILES: CC[C@H](C)[C@@H]1NC(=O)[C@@H](CCCNC(=N)N)NC(=O)[C@H](CC(C)C)NC(=O)[C@H]([C@H](O)C(C)C)NC(=O)[C@@H](NC(=O)[C@H](CC(C)C)NC(=O)[C@H](N)CC(C)C)[C@@H](c2ccccc2)OC(=O)[C@H](CO)NC(=O)[C@H]([C@H](O)C(N)=O)NC(=O)CNC(=O)[C@H]([C@H](C)O)NC1=O [Example 1A, D-Leucyl-N^1-4-{(3S,6S,12S,15S,18R,21S,24S,27S,28R)-6-[(1S)-2-amino-1-hydroxy-2-oxoethyl]-18-(3-{[amino(imino)methyl]amino}propyl)-12-[(1S)-1-hydroxyethyl]-3-(hydroxymethyl)-24-[(1R)-1-hydroxy-2-methylpropyl]-21-isobutyl-15-[(1S)-1-methylpropyl]-2,5,8,11,14,17,20,23,26-nonaoxo-28-phenyl-1-oxa-4,7,10,13,16,19,22,25-octaazacyclooctacosan-27-yl}-L-leucinamide bistrifluoroacetate (lysobactin), reference compound] (H-[dL]L[Phe(3R-OH)][Leu(3R-OH)]L[dR]I[aThr]G[Asn(3S-OH)]S; ester 3-C)
MIC S. aureus 133 [1, 4]: 0.5 µg/mL (≈ 0.392 µM) | MIC S. pneumoniae G9a [2, 5]: 0.063 µg/mL (≈ 0.0494 µM) | fraction unbound at 30 min [3, 6]: 0.0067 | MIC E. faecium L4001 (E. faecium L4001): 0.5 µg/mL (≈ 0.392 µM) | MIC E. faecalis ICB 27159 (E. faecalis ICB 27159; [4]): 0.5 µg/mL (≈ 0.392 µM)

SMILES: CC[C@H](C)[C@@H]1NC(=O)[C@@H](CCCNC(=N)N)NC(=O)[C@H](CC(C)C)NC(=O)[C@H]([C@H](O)C(C)C)NC(=O)[C@@H](NC(=O)[C@H](Cc2cccnc2)NC(=O)[C@H](N)C[Si](C)(C)C)[C@@H](c2ccccc2)OC(=O)[C@H](CO)NC(=O)[C@H]([C@H](O)C(N)=O)NC(=O)CNC(=O)[C@H]([C@H](C)O)NC1=O [Example 2, 3-(Trimethylsilyl)-D-alanyl-3-(pyridin-3-yl)-L-alanyl-de(1-D-leucyl-2-L-leucyl)-lysobactin tristrifluoroacetate] (H-[dAla(TMS)][3Pal][Phe(3R-OH)][Leu(3R-OH)]L[dR]I[aThr]G[Asn(3S-OH)]S; ester 3-C)
MIC S. aureus 133 [1, 4]: 0.125 µg/mL (≈ 0.0932 µM) | MIC S. pneumoniae G9a [2, 5]: 0.125 µg/mL (≈ 0.0932 µM) | fraction unbound at 30 min [3, 6]: 0.123 | MIC E. faecium L4001 (E. faecium L4001): 1 µg/mL (≈ 0.745 µM) | MIC E. faecalis ICB 27159 (E. faecalis ICB 27159; [4]): 0.5 µg/mL (≈ 0.373 µM)

SMILES: CC[C@H](C)[C@@H]1NC(=O)[C@@H](CCCNC(=N)N)NC(=O)[C@H](CC(C)C)NC(=O)[C@H]([C@H](O)C(C)C)NC(=O)[C@@H](NC(=O)[C@H](Cc2cccnc2)NC(=O)[C@H](N)C[Si](C)(C)C)[C@@H](c2ccccc2)OC(=O)[C@H](CO)NC(=O)[C@H]([C@H](O)C(N)=O)NC(=O)CNC(=O)[C@H]([C@H](C)O)NC1=O [Example 3, 3-(Trimethylsilyl)-D-alanyl-3-(pyridin-3-yl)-L-alanyl-de(1-D-leucyl-2-L-leucyl)-lysobactin trismethanesulphonate] (H-[dAla(TMS)][3Pal][Phe(3R-OH)][Leu(3R-OH)]L[dR]I[aThr]G[Asn(3S-OH)]S; ester 3-C)
MIC S. aureus 133 [1, 4]: 0.5 µg/mL

MIC S. aureus 133 [1]; 133: 0.25 µg/mL | MIC S. pneumoniae G9a ([2]; G9a): 0.125 µg/mL | fraction unbound at 30 min ([3]; rat, plasma): 0.061 | MIC E. faecalis ICB 27159 (E. faecalis ICB 27159; ICB 27159): 1 µg/mL
SMILES: CC[C@H](C)[C@H](NC(=O)[C@@H](CCCNC(=N)N)NC(=O)[C@H](CC(C)C)NC(=O)[C@@H](C)[C@H](O)C(C)C)C(=O)N[C@H](C(=O)NCC(=O)N[C@H](C(=O)N[C@@H](CO)C(=O)O[C@H](c1ccccc1)[C@H](NC(=O)[C@H](Cc1cccnc1)NC(=O)[C@H](N)CC(C)(C)CC)C(N)=O)[C@H](O)C(N)=O)[C@H](C)O.O=C(O)C(F)(F)F.O=C(O)C(F)(F)F.O=C(O)C(F)(F)F [Example 4, 4,4-Dimethyl-D-norleucyl-3-(pyridin-3-yl)-L-alanyl-de(1-D-leucyl-2-L-leucyl)lysobactin tristrifluoroacetate] (X1-L[dR]I[aThr]G[Asn(3S-OH)]S-X3)

SMILES: CC[C@H](C)[C@@H]1NC(=O)[C@@H](CCCNC(=N)N)NC(=O)[C@H](CC(C)C)NC(=O)[C@H]([C@H](O)C(C)C)NC(=O)[C@@H](NC(=O)[C@H](Cc2cccnc2)NC(=O)[C@H](N)C[Si](C)(C)C)[C@@H](c2ccccc2)OC(=O)[C@H](CO)NC(=O)[C@H]([C@H](O)C(N)=O)NC(=O)CNC(=O)[C@H]([C@H](C)O)NC1=O [Example 6, (Trimethylsilyl)-D-alanyl-3-(pyridin-3-yl)-L-alanyl-de(1-D-leucyl-2-L-leucyl)lysobactin trishydrochloride] (H-[dAla(TMS)][3Pal][Phe(3R-OH)][Leu(3R-OH)]L[dR]I[aThr]G[Asn(3S-OH)]S; ester 3-C)
MIC S. aureus 133 [1, 7]: <0.063 µg/mL | MIC S. pneumoniae G9a ([2]; BHI broth with 10% bovine serum, 10^6 microbes per ml, 37° C., 18-24 hours, 10% CO2, trishydrochloride): <0.063 µg/mL | MIC E. faecalis ICB 27159 (E. faecalis ICB 27159; [7]): 1 µg/mL

SMILES: CC[C@H](C)[C@@H]1NC(=O)[C@@H](CCCNC(=N)N)NC(=O)[C@H](CC(C)C)NC(=O)[C@H]([C@H](O)C(C)C)NC(=O)[C@@H](NC(=O)[C@H](Cc2cccnc2)NC(=O)[C@H](N)C[Si](C)(C)C)[C@@H](c2ccccc2)OC(=O)[C@H](CO)NC(=O)[C@H]([C@H](O)C(N)=O)NC(=O)CNC(=O)[C@H]([C@H](C)O)NC1=O [Example 7, (Trimethylsilyl)-D-alanyl-3-(pyridin-3-yl)-L-alanyl-de(1-D-leucyl-2-L-leucyl)lysobactin tris-L-lactate] (H-[dAla(TMS)][3Pal][Phe(3R-OH)][Leu(3R-OH)]L[dR]I[aThr]G[Asn(3S-OH)]S; ester 3-C)
MIC S. aureus 133 [1, 4]: 0.063 µg/mL (≈ 0.047 µM) | MIC E. faecalis ICB 27159 (E. faecalis ICB 27159; [4]): 1 µg/mL (≈ 0.745 µM)

SMILES: CC[C@H](C)[C@@H]1NC(=O)[C@@H](CCCNC(=N)N)NC(=O)[C@H](CC(C)C)NC(=O)[C@H]([C@H](O)C(C)C)NC(=O)[C@@H](NC(=O)[C@H](Cc2cccnc2)NC(=O)[C@H](N)C[Si](C)(C)C)[C@@H](c2ccccc2)OC(=O)[C@H](CO)NC(=O)[C@H]([C@H](O)C(N)=O)NC(=O)CNC(=O)[C@H]([C@H](C)O)NC1=O [Example 8, (Trimethylsilyl)-D-alanyl-3-(pyridin-3-yl)-L-alanyl-de(1-D-leucyl-2-L-leucyl)lysobactin tris-D-tartrate] (H-[dAla(TMS)][3Pal][Phe(3R-OH)][Leu(3R-OH)]L[dR]I[aThr]G[Asn(3S-OH)]S; ester 3-C)
MIC S. aureus 133 [1, 4]: 0.25 µg/mL (≈ 0.186 µM) | MIC E. faecalis ICB 27159 (E. faecalis ICB 27159; [4]): 2 µg/mL (≈ 1.49 µM)
